What all share (assay type): in vivo
Experiment [1] concerns type 1 diabetic mice. In words: Type 1 diabetes mouse model, treatment over twelve weeks (prevention), 2D echocardiography. As to the method:
To explore whether GLUT1 inhibition holds therapeutic potential against diabetic cardiomyopathy, diabetic mice were treated with a GLUT1 inhibitor (STF-31). Specifically, type 1 diabetes was induced in WT mice and mice were monitored for twelve weeks.
(§1) To evaluate the impact of GLUT1 and myocardial glucose content changes on cardiac function and structure, 2D echocardiography was performed to measure EF, FS, end-diastolic and end-systolic volumes (EDV, ESV), stroke volume (SV), and cardiac output (CO) using M-mode short axis images, automatic tracing, myocardial strain and strain rate with speckle tracking. From the pulsed wave Doppler spectral waveforms, the peak early and late diastolic transmitral velocities (E, A waves) were measured to obtain the E/A ratio.
One group of mice was treated with STF-31 for the entire twelve-weeks period.
Prior to this disclosure, treatment of diabetic patients with SGLT2 inhibitors (dapa or empagliflozin), has shown the most robust cardioprotective effects. Treatment of diabetic mice with dapa corrected hyperglycemia (FIG. 4A) and prevented systolic (FIG. 4B) and diastolic heart failure (FIG. 4C) in both early and late type 1 diabetes.

Experiment [2] relates to type 1 diabetic mice. Put plainly: Type 1 diabetes mouse model, treatment started after cardiac dysfunction was confirmed (6 weeks) until the twelfth week. As to the method:
as §1
In another mouse cohort, treatment with either STF-31 or dapa started after cardiac dysfunction was confirmed (6 weeks of type 1 diabetes) and continued until the twelfth week. This treatment corrected both systolic (FIG. 4D) and diastolic (FIG. 4E) dysfunction. Importantly, treatment with either STF-31 or dapa prevented upregulation of KLF5. Thus, inhibition of GLUT1 appears as a novel therapeutic target for diabetic cardiomyopathy that prevents activation of the cardiotoxic FOXO1-KLF5 axis.

Experiment [3] relates to type 2 diabetic mice (HFD). In words: Type 2 diabetes mouse model (high-fat diet 32 weeks, then 8 weeks of treatment). Particulars: HFD type 2 diabetes mice. From the text: Similar results were shown in mouse models of type 2 diabetes, wherein mice were fed a high-fat diet (HFD) for 32 weeks prior to initiating 8 weeks of treatment with SFT-31.
[4] abbreviates: treatment from 6 weeks of type 1 diabetes until twelfth week, after confirmed cardiac dysfunction.

Structures are written as SMILES.

The values below come from US20240108614A1, “Methods of Treating Diabetic Cardiomyopathy by Inhibiting GLUT1” (University of Cincinnati, priority 2022, published 2024).

Take `CC(C)(C)c1ccc(S(=O)(=O)NCc2ccc(C(=O)Nc3cccnc3)cc2)cc1` [STF-31]: in the experiment with type 1 diabetic mice [1], the “diastolic dysfunction (mitral valve E/A ratio)” value is recorded as “did not develop”, the “plasma glucose levels (hyperglycemia)” value is “persistent hyperglycemia” and the systolic dysfunction result was “did not develop”. In addition, in the experiment with type 1 diabetic mice [2] (setting [4]), the diastolic dysfunction entry is recorded as “corrected” and the systolic dysfunction result is given as “corrected”. Besides, the “upregulation of KLF5” value in the experiment with type 1 diabetic mice [2] (type 1 diabetic mice) was “prevented”. In experiment [3], the KLF5 upregulation entry was “prevented”, the diastolic dysfunction entry is “did not develop”, the hyperglycemia entry is “persistent hyperglycemia” and the systolic dysfunction entry is on record as “did not develop”.
